How the values were obtained:
[1] = biological target: apolipoprotein(a), [apo(a)], apolipoproteinB-100, [apoB-100], coupling reaction that generates Lp(a) (Homo sapiens, UniProt P04114+P08519); test: LPABC screen: lipoprotein(a) biochemical coupling assay, Lp(a) content by ELISA; details: recombinant apo(a) 17-kringle (293 cell media) + HepG2 conditioned media, 67 minutes, 37° C., 0.3 to 50 μM compound; read-out: Lp ABC IC50
Protocol: LPABC Screen The lipoprotein(a), [Lp(a)], biochemical coupling assay (LPABC) is used to characterize inhibitors of the apolipoprotein(a), [apo(a)], apolipoproteinB-100, [apoB-100], coupling reaction that generates Lp(a). Conditioned media from 293 cells (ATCC CRL-1573), permanently transfected with an apo(a) 17-kringle cDNA expression construct (pcDNA-AMP, In Vitrogen, Carlsbad, Calif.) using standard molecular biology techniques, was used as a source of recombinant apo(a) is diluted 1:3 with phosphate buffered saline (PBS) and 90 μL is pipetted into each well of a 96-well plate and placed into a 37° C. incubator for 10 minutes. Twenty microliters of a 0.3 to 50 μM solution of a compound of the present invention in PBS is added to the warmed plate. Ninety microliters of HepG2 (ATCC HB-8065) cell conditioned media diluted 1:3 with PBS is added to the apo(a)/compound mixture and mixed by pipetting up and down 5 times. The reaction is incubated for 67 minutes in a 37° C. incubator. A 100 μL aliquot of the reaction is removed and assayed for its Lp(a) content by an enzyme linked immunosorbent assay (ELISA).

[2] = test system: Lp(a) production in HepG2^K17 cells; test: LPA3 screen: inhibition of Lp(a) production in transfected HepG2 cells, Lp(a) in media by ELISA; format: cell-based; details: Homo sapiens, 8 hours, 0.3 to 50 μM compound, Lp(a) normalized for total protein, read-out: Lp A3 IC50
Protocol: The LPA3 screen is used to identify compounds that inhibit Lp(a) production. This screen employs permanently transfected HepG2 cells (HepG2^K17) that are generated using an apo(a) 17-kringle cDNA expression construct (pcDNA-AMP, In Vitrogen, Carlsbad, Calif.) in accordance with methods that are well-known in molecular biology.
HepG2^K17 cells are seeded in 96-well plates at a density of 75,000 cells per well in 0.25 mL of Dulbecco's Modified Eagle Media (DMEM) containing 10% fetal bovine serum (FBS). Seeded plates are incubated overnight in a 37° C., 5% CO2/95% 02 incubator. The media is removed, replaced with (1) fresh media, or (2) fresh media plus 0.3 to 50 μM of a compound of the present invention in 20 μL of PBS, and the plates returned to the incubator for 8 hours. After the additional 8 hours of incubation, Lp(a) is assayed in the media by ELISA. Cells are digested with 0.5N NaOH overnight and assayed for total protein. Lp(a) values are normalized for total protein content.

CCOc1ccc(C(=O)N(Cc2cccnc2)Cc2ccccc2-c2ccccc2)cc1 [Example 102, N-Biphenyl-2-ylmethyl-4-ethoxy-N-pyridin-3-ylmethyl-benzamide]
IC50 [1]: > 50 µM | IC50 [2]: 15.9 µM

COc1ccc(C(=O)N(Cc2ccccc2-c2ccccc2)c2ccc(OC)cc2)cc1 [Example 103, N-Biphenyl-2-ylmethyl-4-methoxy-N-(4-methoxy-phenyl)-benzamide]
IC50 [1]: > 50 µM | IC50 [2]: 49 µM

CCOc1ccccc1C(=O)N(Cc1ccccc1-c1ccccc1)c1ccc(OC)cc1 [Example 104, N-Biphenyl-2-ylmethyl-2-ethoxy-N-(4-methoxy-phenyl)-benzamide]
IC50 [1]: > 50 µM | IC50 [2]: 11.9 µM

COc1ccc(N(Cc2ccccc2-c2ccccc2)C(=O)c2ccc3c(c2)OCO3)cc1 [Example 105, Benzo[1,3]dioxole-5-carboxylic acid biphenyl-2-ylmethyl-(4-methoxy-phenyl)-amide]
IC50 [1]: > 50 µM | IC50 [2]: 13.4 µM

COc1ccc(N(Cc2ccccc2-c2ccccc2)C(=O)c2ccc(OC)cc2OC)cc1 [Example 106, N-Biphenyl-2-ylmethyl-2,4-dimethoxy-N-(4-methoxy-phenyl)-benzamide]
IC50 [1]: > 50 µM | IC50 [2]: 9.3 µM

COc1ccc(N(Cc2ccccc2-c2ccccc2)C(=O)c2ccccc2OCc2ccccc2)cc1 [Example 107, 2-Benzyloxy-N-biphenyl-2-ylmethyl-N-(4-methoxy-phenyl)-benzamide]
IC50 [1]: > 50 µM | IC50 [2]: 15.4 µM

COc1ccc(N(Cc2ccccc2-c2ccccc2)C(=O)c2ccccc2Br)cc1 [Example 108, N-Biphenyl-2-ylmethyl-2-bromo-N-(4-methoxy-phenyl)-benzamide]
IC50 [1]: > 50 µM | IC50 [2]: 37.7 µM

COc1ccc(N(Cc2ccccc2-c2ccccc2)C(=O)c2cccc3c2OCO3)cn1 [Example 109, Benzo[1,3]dioxole-4-carboxylic acid biphenyl-2-ylmethyl-(6-methoxy-pyridin-3-yl)-amide]
IC50 [1]: > 50 µM | IC50 [2]: 11.8 µM

CCOc1ccccc1C(=O)N(Cc1ccccc1-c1ccccc1)c1ccccn1 [Example 110, N-Biphenyl-2-ylmethyl-2-ethoxy-N-pyridin-2-yl-benzamide]
IC50 [1]: > 50 µM | IC50 [2]: 14 µM

O=C(c1ccccc1Br)N(Cc1ccccc1-c1ccccc1)c1ccccn1 [Example 111, N-Biphenyl-2-ylmethyl-2-bromo-N-pyridin-2-yl-benzamide]
IC50 [1]: > 50 µM | IC50 [2]: 18.7 µM

O=C(c1ccccc1[N+](=O)[O-])N(Cc1ccccc1-c1ccccc1)c1ccccn1 [Example 112, N-Biphenyl-2-ylmethyl-2-nitro-N-pyridin-2-yl-benzamide]
IC50 [1]: > 50 µM | IC50 [2]: 23.7 µM

O=C(c1ccccc1OCc1ccccc1)N(Cc1ccccc1-c1ccccc1)c1ccccn1 [Example 113, 2-Benzyloxy-N-biphenyl-2-ylmethyl-N-pyridin-2-yl-benzamide]
IC50 [1]: > 50 µM | IC50 [2]: 25.1 µM

O=C(c1ccccc1Br)N(Cc1ccccc1-c1ccccc1)c1cccnc1 [Example 114, N-Biphenyl-2-ylmethyl-2-bromo-N-pyridin-3-yl-benzamide]
IC50 [1]: > 50 µM | IC50 [2]: 26.7 µM

O=C(c1sc2ccccc2c1Cl)N(Cc1ccccc1-c1ccccc1)c1cccnc1 [Example 115, 3-Chloro-benzo[b]thiophene-2-carboxylic acid biphenyl-2-ylmethyl-pyridin-3-yl-amide]
IC50 [1]: > 50 µM | IC50 [2]: 23.5 µM

O=C(c1cc2ccccc2s1)N(Cc1ccccc1-c1ccccc1)c1cccnc1 [Example 116, Benzo[b]thiophene-2-carboxylic acid biphenyl-2-ylmethyl-pyridin-3-yl-amide]
IC50 [1]: > 50 µM | IC50 [2]: 9.3 µM

O=C(c1ccccc1[N+](=O)[O-])N(Cc1ccccc1-c1ccccc1)c1cccnc1 [Example 117, N-Biphenyl-2-ylmethyl-2-nitro-N-pyridin-3-yl-benzamide]
IC50 [1]: > 50 µM | IC50 [2]: 18 µM

CCOc1ccccc1C(=O)N(Cc1ccccc1-c1ccccc1)c1ccncc1 [Example 118, N-Biphenyl-2-ylmethyl-2-ethoxy-N-pyridin-4-yl-benzamide]
IC50 [1]: > 50 µM | IC50 [2]: 5.8 µM

COc1ccccc1C(=O)N(Cc1ccccc1-c1ccccc1)c1ccncc1 [Example 119, N-Biphenyl-2-ylmethyl-2-methoxy-N-pyridin-4-yl-benzamide]
IC50 [1]: > 50 µM | IC50 [2]: 4.8 µM

O=C(c1cccc2c1OCO2)N(Cc1ccccc1-c1ccccc1)c1ccncc1 [Example 120, Benzo[1,3]dioxole-4-carboxylic acid biphenyl-2-ylmethyl-pyridin-4-yl-amide]
IC50 [1]: > 50 µM | IC50 [2]: 18.1 µM

O=C(c1ccccc1Br)N(Cc1ccccc1-c1ccccc1)c1ccncc1 [Example 121, N-Biphenyl-2-ylmethyl-2-bromo-N-pyridin-4-yl-benzamide]
IC50 [1]: > 50 µM | IC50 [2]: 3.8 µM

O=C(c1ccccc1[N+](=O)[O-])N(Cc1ccccc1-c1ccccc1)c1ccncc1 [Example 122, N-Biphenyl-2-ylmethyl-2-nitro-N-pyridin-4-yl-benzamide]
IC50 [1]: > 50 µM | IC50 [2]: 22.4 µM

O=C(c1ccccc1OCc1ccccc1)N(Cc1ccccc1-c1ccccc1)c1ccncc1 [Example 123, 2-Benzyloxy-N-biphenyl-2-ylmethyl-N-pyridin-4-yl-benzamide]
IC50 [1]: > 50 µM | IC50 [2]: 2.3 µM

CCOc1ccc(C(=O)N(Cc2ccccc2-c2ccccc2)c2ccncc2)cc1 [Example 124, N-Biphenyl-2-ylmethyl-4-ethoxy-N-pyridin-4-yl-benzamide]
IC50 [1]: > 50 µM | IC50 [2]: 3.3 µM

O=C(c1cc2ccccc2s1)N(Cc1cccnc1)Cc1ccccc1-c1ccccc1 [Example 125, Benzo[b]thiophene-2-carboxylic acid biphenyl-2-ylmethyl-pyridin-3-ylmethyl-amide]
IC50 [1]: > 50 µM | IC50 [2]: 23.9 µM

COc1ccc(N(Cc2ccccc2-c2ccccc2)C(=O)c2ccccc2SC)cc1 [Example 126, N-Biphenyl-2-ylmethyl-N-(4-methoxy-phenyl)-2-methylsulfanyl-benzamide]
IC50 [1]: > 50 µM | IC50 [2]: 16 µM

COc1ccc(N(Cc2ccccc2-c2ccccc2)C(=O)c2ccccc2SC(C)C)cc1 [Example 127, N-Biphenyl-2-ylmethyl-2-isopropylsulfanyl-N-(4-methoxy-phenyl)-benzamide]
IC50 [1]: > 50 µM | IC50 [2]: 49.4 µM

CCCSc1ccccc1C(=O)N(Cc1ccccc1-c1ccccc1)c1cccc(OC)c1 [Example 128, N-Biphenyl-2-ylmethyl-N-(3-methoxy-phenyl)-2-propylsulfanyl-benzamide]
IC50 [1]: > 50 µM | IC50 [2]: 46.8 µM

COc1cccc(N(Cc2ccccc2-c2ccccc2)C(=O)c2ccccc2SC)c1 [Example 129, N-Biphenyl-2-ylmethyl-N-(3-methoxy-phenyl)-2-methylsulfanyl-benzamide]
IC50 [1]: > 50 µM | IC50 [2]: 6.5 µM

COc1cccc(N(Cc2ccccc2-c2ccccc2)C(=O)c2ccccc2SC(C)C)c1 [Example 130, N-Biphenyl-2-ylmethyl-2-isopropylsulfanyl-N-(3-methoxy-phenyl)-benzamide]
IC50 [1]: > 50 µM | IC50 [2]: 31.4 µM

COc1cccc(N(Cc2ccccc2-c2ccccc2)C(=O)c2ccccc2SCc2ccccc2)c1 [Example 131, 2-Benzylsulfanyl-N-biphenyl-2-ylmethyl-N-(3-methoxy-phenyl)-benzamide]
IC50 [1]: > 50 µM | IC50 [2]: 40.1 µM

O=C(c1ccccc1SCc1ccccc1)N(Cc1ccccc1-c1ccccc1)c1ccc(Cl)cc1 [Example 132, 2-Benzylsulfanyl-N-biphenyl-2-ylmethyl-N-(4-chloro-phenyl)-benzamide]
IC50 [1]: > 50 µM | IC50 [2]: > 74 µM

CCCSc1ccccc1C(=O)N(Cc1ccccc1-c1ccccc1)c1ccc(OC)c(OC)c1 [Example 133, N-Biphenyl-2-ylmethyl-N-(3,4-dimethoxy-phenyl)-2-propylsulfanyl-benzamide]
IC50 [1]: > 50 µM | IC50 [2]: 16.7 µM

COc1ccc(N(Cc2ccccc2-c2ccccc2)C(=O)c2ccccc2SC)cc1OC [Example 134, N-Biphenyl-2-ylmethyl-N-(3,4-dimethoxy-phenyl)-2-methylsulfanyl-benzamide]
IC50 [1]: > 50 µM | IC50 [2]: 12.9 µM

COc1ccc(N(Cc2ccccc2-c2ccccc2)C(=O)c2ccccc2SC(C)C)cc1OC [Example 135, N-Biphenyl-2-ylmethyl-N-(3,4-dimethoxy-phenyl)-2-isopropylsulfanyl-benzamide]
IC50 [1]: > 50 µM | IC50 [2]: 21.9 µM
